Measurements from PubChem BioAssay (NCI).
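Protocol summary: plate cells (96-well), add compound at 5 concentrations, incubate 48 h, interpolate endpoints linearly. Definition used: TGI = concentration required for complete inhibition of growth.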

Assays:
Assay in all cases: NCI tumour cell line growth inhibition, 48 h
[1] = system: SF-539 CNS
[2] = system: SR leukemia
[3] = system: SF-268 CNS
[4] = system: MDA-MB-435
[5] = system: 786-0 renal
[6] = system: U251 CNS
[7] = system: MDA-MB-231 breast
[8] = system: OVCAR-8 ovarian
[9] = system: SK-MEL-5 melanoma
[10] = system: MOLT-4 leukemia
[11] = system: OVCAR-4 ovarian
[12] = system: SK-OV-3 ovarian
[13] = system: IGROV1 ovarian
[14] = system: EKVX NSCLC
[15] = system: HCC-2998 colon
[16] = system: SNB-19 CNS
[17] = system: CAKI-1 renal
[18] = system: SF-295 CNS
[19] = system: NCI-H460 lung
[20] = system: NCI/ADR-RES ovarian
[21] = system: NCI-H522 lung
[22] = system: MCF7 breast
[23] = system: M14 melanoma
[24] = system: MALME-3M melanoma
[25] = system: LOX IMVI melanoma
[26] = system: CCRF-CEM leukemia
[27] = system: ACHN renal
[28] = system: A549 NSCLC
[29] = system: PC-3 prostate
[30] = system: UACC-62 melanoma
[31] = system: HOP-92 NSCLC
[32] = system: SN12C renal
[33] = system: RXF 393 renal
[34] = system: DU-145 prostate
[35] = system: TK-10 renal
[36] = system: OVCAR-5 ovarian
[37] = system: HCT-116 colon
[38] = system: HL-60(TB) leukemia
[39] = system: SK-MEL-2 melanoma
[40] = system: SK-MEL-28 melanoma
[41] = system: BT-549 breast
[42] = system: SW-620 colon
[43] = system: NCI-H226 lung
[44] = system: UO-31 renal
[45] = system: HT29 colon
[46] = system: RPMI-8226 leukemia
[47] = system: KM12 colon
[48] = system: HCT-15 colon
[49] = system: T-47D breast
[50] = system: MDA-N
[51] = system: UACC-257 melanoma
[52] = system: NCI-H23 lung
[53] = system: OVCAR-3 ovarian
[54] = system: HOP-62 NSCLC
[55] = system: HS 578T breast
[56] = system: K-562 leukemia
[57] = system: COLO 205 colon
[58] = system: SNB-75 CNS
[59] = system: A498 renal
[60] = system: LXFL 529 NSCLC
[61] = system: M19-MEL melanoma
[62] = system: SNB-78 CNS
[63] = system: KM20L2 colon
[64] = system: DMS 273 small cell lung
[65] = system: DLD-1 colon
[66] = system: DMS 114 small cell lung

Structure (SMILES): C=C1C(=O)C23CC1C[C@H](OC(C)=O)[C@H]2C1(C)C(OC(C)=O)C[C@H](O)C(C)(C)[C@H]1C(=O)[C@@H]3OC(C)=O (stereo not given in full)
- TGI [1]: 6.47 µM
- TGI [2]: > 24.7 µM
- TGI [3]: 25.3 µM
- TGI [4]: 11.4 µM
- TGI [5]: 9.64 µM
- TGI [6]: 29.3 µM
- TGI [7]: 11.7 µM
- TGI [8]: 7.9 µM
- TGI [9]: 27.4 µM
- TGI [10]: 4.03 µM
- TGI [11]: 16.3 µM
- TGI [12]: 32 µM
- TGI [13]: 25.8 µM
- TGI [14]: 15.7 µM
- TGI [15]: 35.9 µM
- TGI [16]: 34.6 µM
- TGI [17]: 8.17 µM
- TGI [18]: 31.9 µM
- TGI [19]: 33.4 µM
- TGI [20]: 35.6 µM
- TGI [21]: 3.48 µM
- TGI [22]: 14 µM
- TGI [23]: 9.5 µM
- TGI [24]: 5.15 µM
- TGI [25]: 10.3 µM
- TGI [26]: 7.65 µM
- TGI [27]: 14.1 µM
- TGI [28]: 33.7 µM
- TGI [29]: 24.6 µM
- TGI [30]: 9.51 µM
- TGI [31]: 7.84 µM
- TGI [32]: 15.1 µM
- TGI [33]: 9.75 µM
- TGI [34]: 25.7 µM
- TGI [35]: 5.82 µM
- TGI [36]: 22.5 µM
- TGI [37]: 6.16 µM
- TGI [38]: 4.47 µM
- TGI [39]: 25.9 µM
- TGI [40]: 13.2 µM
- TGI [41]: 7.4 µM
- TGI [42]: 3.6 µM
- TGI [43]: 43.3 µM
- TGI [44]: 9.75 µM
- TGI [45]: 17 µM
- TGI [46]: 4.81 µM
- TGI [47]: 23.8 µM
- TGI [48]: 11 µM
- TGI [49]: 5.44 µM
- TGI [50]: 10.7 µM
- TGI [51]: 11 µM
- TGI [52]: 15.2 µM
- TGI [53]: 12.7 µM
- TGI [54]: 42.9 µM
- TGI [55]: 15.3 µM
- TGI [56]: > 21 µM
- TGI [57]: 4.8 µM
- TGI [58]: 32.8 µM
- TGI [59]: 29.7 µM

Structure (SMILES): CC1C[C@@]2(c3ccccc3)C(=O)CCC[C@H]2N1 (stereo not given in full)
- TGI [1]: > 100 µM
- TGI [2]: > 100 µM
- TGI [3]: > 100 µM
- TGI [5]: > 100 µM
- TGI [60]: > 100 µM
- TGI [6]: > 100 µM
- TGI [8]: > 100 µM
- TGI [9]: > 100 µM
- TGI [10]: > 100 µM
- TGI [61]: > 100 µM
- TGI [11]: > 100 µM
- TGI [12]: > 100 µM
- TGI [13]: > 100 µM
- TGI [14]: > 100 µM
- TGI [62]: > 100 µM
- TGI [16]: > 100 µM
- TGI [17]: > 100 µM
- TGI [18]: > 100 µM
- TGI [19]: > 100 µM
- TGI [21]: > 100 µM
- TGI [23]: > 100 µM
- TGI [24]: > 100 µM
- TGI [26]: > 100 µM
- TGI [27]: > 100 µM
- TGI [63]: > 100 µM
- TGI [28]: > 100 µM
- TGI [30]: > 100 µM
- TGI [31]: > 100 µM
- TGI [32]: > 100 µM
- TGI [33]: > 100 µM
- TGI [35]: > 100 µM
- TGI [36]: > 100 µM
- TGI [37]: > 100 µM
- TGI [38]: > 100 µM
- TGI [39]: > 100 µM
- TGI [40]: > 100 µM
- TGI [42]: > 100 µM
- TGI [43]: > 100 µM
- TGI [44]: > 100 µM
- TGI [45]: > 100 µM
- TGI [64]: > 100 µM
- TGI [65]: > 100 µM
- TGI [47]: > 100 µM
- TGI [51]: > 100 µM
- TGI [52]: > 100 µM
- TGI [66]: > 100 µM
- TGI [53]: > 100 µM
- TGI [54]: > 100 µM
- TGI [56]: > 100 µM
- TGI [58]: > 100 µM
- TGI [59]: > 100 µM
